Among the data in patent US10316035B2, “Triazolopyridine inhibitors of myeloperoxidase” (BRISTOL-MYERS SQUIBB COMPANY, priority 2015, dated 2019) are IC50 values, retold here.

By IC50 is commonly meant the midpoint of a concentration-inhibition curve.

The structures appear in SMILES notation. Counter-ions that a name gives are not always drawn.

The target of the first assay is T1, myeloperoxidase (MPO) (Homo sapiens, UniProt P05164).
T1 sequence (P05164 49-745): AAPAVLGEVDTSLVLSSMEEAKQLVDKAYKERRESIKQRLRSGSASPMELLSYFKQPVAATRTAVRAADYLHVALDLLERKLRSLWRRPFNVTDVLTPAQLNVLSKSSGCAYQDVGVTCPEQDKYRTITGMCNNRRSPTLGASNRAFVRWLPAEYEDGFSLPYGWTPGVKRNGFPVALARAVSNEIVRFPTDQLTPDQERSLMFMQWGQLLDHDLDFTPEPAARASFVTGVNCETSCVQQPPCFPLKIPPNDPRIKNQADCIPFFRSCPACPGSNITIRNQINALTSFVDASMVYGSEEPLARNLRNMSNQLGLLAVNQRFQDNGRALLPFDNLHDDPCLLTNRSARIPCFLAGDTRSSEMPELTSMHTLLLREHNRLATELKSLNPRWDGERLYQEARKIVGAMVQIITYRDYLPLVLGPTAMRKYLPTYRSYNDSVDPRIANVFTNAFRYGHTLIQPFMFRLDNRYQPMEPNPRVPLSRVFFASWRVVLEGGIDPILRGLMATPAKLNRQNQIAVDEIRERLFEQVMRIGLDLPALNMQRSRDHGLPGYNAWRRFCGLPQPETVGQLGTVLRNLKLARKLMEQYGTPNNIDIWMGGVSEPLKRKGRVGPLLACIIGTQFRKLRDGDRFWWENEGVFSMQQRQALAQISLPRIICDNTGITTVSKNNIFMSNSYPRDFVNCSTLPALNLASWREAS
Put plainly: MPO peroxidation assay (Amplex Red assay). It counts as biochemical.
Details: not given
In short, it runs like this: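 Peroxidase turnover of Amplex Red to fluorescent resorufin (Ex 535/Em 590 nm) was followed for 15 min in 100 mM KPi, pH 7.4, after 10 min room-temperature preincubation of compound with 200 pM enzyme plus 40 nM H2O2. The substrate mix contained 200 μM Amplex Red and 10 mM H2O2. IC50s came from linear-phase rates (180–540 s) fitted with a Hill equation.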
With `CS(=O)(=O)c1ccccc1COc1cc(N)nc2[nH]nnc12` [Example 232, 7-((2-(Methylsulfonyl)benzyl)oxy)-3H-[1,2,3]triazolo[4,5-b]pyridin-5-amine], the IC50 was in the range of 0.101 to 0.999 µM.

Staying with this assay, now noted: MPO peroxidation, potency range class; read-out: Amplex Red IC50.
Take `Cc1cc(CNC(=O)c2ccc(COc3cc(N)nc4[nH]nnc34)c(Cl)c2)n(C)n1` [Example 207, 4-((5-amino-3H-[1,2,3]triazolo[4,5-b]pyridin-7-yloxy)methyl)-3-chloro-N-((1,3-dimethyl-1H-pyrazol-5-yl)methyl)benzamide]: the IC50 fell in the range of 0.001 to 0.1 µM.

Turning to `Nc1cc(OCc2ccc(C(=O)N3CCCC(Oc4ccccc4)C3)cc2Cl)c2nn[nH]c2n1` (centres unmarked) [Example 209], the IC50 lay within 0.001 to 0.1 µM.

Consider `Nc1cc(OCc2ccc(C(=O)N3CCC(CO)C3)cc2Cl)c2nn[nH]c2n1` (centres unmarked) [Example 210], for which the IC50 was 0.101 to 0.999 µM.

Consider `CC(=O)N[C@H]1CCN(C(=O)c2ccc(COc3cc(N)nc4[nH]nnc34)c(Cl)c2)C1` [Example 212, (S)-N-(1-(4-((5-amino-3H-[1,2,3]triazolo[4,5-b]pyridin-7-yloxy)methyl)-3-chlorobenzoyl)pyrrolidin-3-yl)acetamide], for which the IC50 lay within 0.101 to 0.999 µM.

For `Nc1cc(OCc2ccc(C(=O)Nc3ccccc3)cc2Cl)c2nn[nH]c2n1` [Example 213, 4-((5-amino-3H-[1,2,3]triazolo[4,5-b]pyridin-7-yloxy)methyl)-3-chloro-N-phenylbenzamide], the IC50 is 0.001 to 0.1 µM.

For `Nc1cc(OCc2ccc(C(=O)NCc3ccccc3Cl)cc2Cl)c2nn[nH]c2n1` [Example 214, 4-((5-amino-3H-[1,2,3]triazolo[4,5-b]pyridin-7-yloxy)methyl)-3-chloro-N-(2-chlorobenzyl)benzamide], the IC50 was in the range of 0.001 to 0.1 µM.

Regarding `COc1ccccc1CNC(=O)c1ccc(COc2cc(N)nc3[nH]nnc23)c(Cl)c1` [Example 215, 4-((5-amino-3H-[1,2,3]triazolo[4,5-b]pyridin-7-yloxy)methyl)-3-chloro-N-(2-methoxybenzyl)benzamide], the IC50 was 0.001 to 0.1 µM.

`CNC(=O)CNC(=O)c1ccc(COc2cc(N)nc3[nH]nnc23)c(Cl)c1` [Example 218, 4-((5-amino-3H-[1,2,3]triazolo[4,5-b]pyridin-7-yloxy)methyl)-3-chloro-N-(2-(methylamino)-2-oxoethyl) benzamide]: the IC50 lay in the range of 0.101 to 0.999 µM.

Take `Nc1cc(OCc2ccc(C(=O)NCc3cccnc3)cc2Cl)c2nn[nH]c2n1` [Example 219, 4-((5-amino-3H-[1,2,3]triazolo[4,5-b]pyridin-7-yloxy)methyl)-3-chloro-N-(pyridin-3-ylmethyl)benzamide]: the IC50 lay within 0.001 to 0.1 µM.

Take `NC(=O)C1CCN(C(=O)c2ccc(COc3cc(N)nc4[nH]nnc34)c(Cl)c2)CC1` [Example 220, 1-(4-((5-amino-3H-[1,2,3]triazolo [4,5-b]pyridin-7-yloxy)methyl)-3-chlorobenzoyl)piperidine-4-carboxamide]: the IC50 lay in the range of 0.101 to 0.999 µM.

Take `Nc1cc(OCc2ccc(C(=O)NC3CCCCC3)cc2Cl)c2nn[nH]c2n1` [Example 221, 4-((5-amino-3H-[1,2,3]triazolo[4,5-b]pyridin-7-yloxy)methyl)-3-chloro-N-cyclohexylbenzamide]: the IC50 lay within 0.001 to 0.1 µM.

Take `CN(C)CCN(C)C(=O)c1ccc(COc2cc(N)nc3[nH]nnc23)c(Cl)c1` [Example 222, 4-((5-amino-3H-[1,2,3]triazolo[4,5-b]pyridin-7-yloxy)methyl)-3-chloro-N-(2-(dimethylamino)ethyl)-N-methylbenzamide]: the IC50 lay in the range of 0.101 to 0.999 µM.

For `CN(C(=O)c1ccc(COc2cc(N)nc3[nH]nnc23)c(Cl)c1)C1CCCCC1` [Example 223, 4-((5-amino-3H-[1,2,3]triazolo[4,5-b]pyridin-7-yloxy)methyl)-3-chloro-N-cyclohexyl-N-methylbenzamide], the half-inhibitory concentration (IC50) was in the range of 0.101 to 0.999 µM.

As for `Nc1cc(OCc2ccc(C(=O)NCCc3c[nH]cn3)cc2Cl)c2nn[nH]c2n1` [Example 224, N-(2-(1H-imidazol-4-yl)ethyl)-4-((5-amino-3H-[1,2,3]triazol[4,5-b]pyridin-7-yloxy)methyl)-3-chlorobenzamide], the IC50 is 0.001 to 0.1 µM.

With `CS(=O)(=O)c1cccc(Cl)c1COc1cc(N)nc2[nH]nnc12` [Example 225, 7-(2-Chloro-6-(methylsulfonyl)benzyloxy)-3H-[1,2,3]triazolo[4,5-b]pyridin-5-amine], the IC50 is 0.001 to 0.1 µM.

On to `CCS(=O)(=O)c1ccc(Cl)cc1COc1cc(N)nc2[nH]nnc12` [Example 227, 7-((5-Chloro-2-(ethylsulfonyl)benzyl)oxy)-3H-[1,2,3]triazolo[4,5-b]pyridin-5-amine, TFA], for which the IC50 was 0.101 to 0.999 µM.

On to `Nc1cc(OCc2cc(Cl)ccc2S(=O)(=O)Cc2ccccc2)c2nn[nH]c2n1` [Example 228, 7-((2-(Benzylsulfonyl)-5-chlorobenzyl)oxy)-3H-[1,2,3]triazolo[4,5-b]pyridin-5-amine, TFA], for which the half-maximal inhibitory concentration (IC50) was 0.101 to 0.999 µM.

As to `CNS(=O)(=O)c1ccccc1COc1cc(N)nc2[nH]nnc12` [Example 229, 2-(((5-Amino-3H-[1,2,3]triazolo[4,5-b]pyridin-7-yl)oxy)methyl)-N-methylbenzenesulfonamide, TFA], the IC50 lay within 0.101 to 0.999 µM.

Consider `Nc1cc(OCc2ccccc2S(N)(=O)=O)c2nn[nH]c2n1` [Example 230, 2-(((5-Amino-3H-[1,2,3]triazolo[4,5-b]pyridin-7-yl)oxy)methyl)benzenesulfonamide, TFA], for which the IC50 fell in the range of 0.101 to 0.999 µM.

Regarding `CS(=O)(=O)c1cc(Br)ccc1COc1cc(N)nc2[nH]nnc12` [Example 231, 7-((4-Bromo-2-(methylsulfonyl)benzyl)oxy)-3H-[1,2,3]triazolo[4,5-b]pyridin-5-amine, TFA], the IC50 lay within 0.001 to 0.1 µM.

Take `Nc1cc(OCc2c(F)cc(Br)cc2F)c2nn[nH]c2n1` [Example 233, 7-((4-Bromo-2,6-difluorobenzyl)oxy)-3H-[1,2,3]triazolo[4,5-b]pyridin-5-amine, TFA]: the IC50 lay in the range of 0.001 to 0.1 µM.

For the compound `Nc1cc(OCc2c(F)ccc(Br)c2Cl)c2nn[nH]c2n1` [Example 235, 7-((3-Bromo-2-chloro-6-fluorobenzyl)oxy)-3H-[1,2,3]triazolo[4,5-b]pyridin-5-amine], the IC50 was 0.001 to 0.1 µM.

Turning to `Nc1cc(OCc2c(F)ccc(Br)c2F)c2nn[nH]c2n1` [Example 236, 7-((3-Bromo-2,6-difluorobenzyl)oxy)-3H-[1,2,3]triazolo[4,5-b]pyridin-5-amine], the IC50 lay in the range of 0.001 to 0.1 µM.

For the compound `Nc1cc(OCc2c(F)cccc2Cl)c2nn[nH]c2n1` [Example 237, 7-((2-Chloro-6-fluorobenzyl)oxy)-3H-[1,2,3]triazolo[4,5-b]pyridin-5-amine], the IC50 was 0.001 to 0.1 µM.

`Nc1cc(OCc2ccccc2OC(F)F)c2nn[nH]c2n1` [Example 238, 7-((2-(Difluoromethoxy)benzyl)oxy)-3H-[1,2,3]triazolo[4,5-b]pyridin-5-amine]: the IC50 fell in the range of 0.001 to 0.1 µM.

For the compound `Nc1cc(OCc2ccccc2C(F)(F)F)c2nn[nH]c2n1` [Example 239, 7-((2-(Trifluoromethyl)benzyl)oxy)-3H-[1,2,3]triazolo[4,5-b]pyridin-5-amine], the IC50 lay in the range of 0.001 to 0.1 µM.

As for `Nc1cc(OCc2ccc(Br)cc2OC(F)(F)F)c2nn[nH]c2n1` [Example 240, 7-((4-Bromo-2-(trifluoromethoxy)benzyl)oxy)-3H-[1,2,3]triazolo[4,5-b]pyridin-5-amine], the IC50 lay in the range of 0.001 to 0.1 µM.

Turning to `Nc1cc(OCc2cc(Cl)ccc2C(F)(F)F)c2nn[nH]c2n1` [Example 241, 7-((5-Chloro-2-(trifluoromethyl)benzyl)oxy)-3H-[1,2,3]triazolo[4,5-b]pyridin-5-amine], the IC50 fell in the range of 0.001 to 0.1 µM.

On to `COc1cc(-n2cccn2)ccc1COc1cc(N)nc2[nH]nnc12` [Example 243, 7-((2-Methoxy-4-(1H-pyrazol-1-yl)benzyl)oxy)-3H-[1,2,3]triazolo[4,5-b]pyridin-5-amine], for which the IC50 lay within 0.001 to 0.1 µM.

As to `Nc1cc(OCc2ccc(-n3ccnc3)cc2OC(F)(F)F)c2nn[nH]c2n1` [Example 244, 7-((4-(1H-Imidazol-1-yl)-2-(trifluoromethoxy)benzyl)oxy)-3H-[1,2,3]triazolo[4,5-b]pyridin-5-amine], the IC50 lay in the range of 0.001 to 0.1 µM.

As for `N#Cc1cc(Br)ccc1COc1cc(N)nc2[nH]nnc12` [Example 245, 2-(((5-Amino-3H-[1,2,3]triazolo[4,5-b]pyridin-7-yl)oxy)methyl)-5-bromobenzonitrile], the IC50 lay within 0.001 to 0.1 µM.

Consider `CS(=O)(=O)c1ccc(COc2cc(N)nc3[nH]nnc23)c(Cl)c1` [Example 246, 7-((2-chloro-4-(methylsulfonyl)benzyl)oxy)-3H-[1,2,3]triazolo[4,5-b]pyridin-5-amine], for which the IC50 lay within 0.101 to 0.999 µM.

In the case of `N#Cc1ccccc1COc1cc(N)nc2[nH]nnc12` [Example 247, 2-(((5-amino-3H-[1,2,3]triazolo[4,5-b]pyridin-7-yl)oxy)methyl)benzonitrile], the IC50 was in the range of 0.001 to 0.1 µM.

For the compound `Nc1cc(OCc2cccc(SC(F)(F)F)c2)c2nn[nH]c2n1` [Example 248, 7-((3-((trifluoromethyl)thio)benzyl)oxy)-3H-[1,2,3]triazolo[4,5-b]pyridin-5-amine], the IC50 is 0.001 to 0.1 µM.
